Measurements taken from patent US6593342B1, “Pharmaceutical compositions comprising 2-quinolones” (Laboratoire L. Lafon, priority 1998, dated 2003).

Legend:
Assay type in all cases: cell-based
[1] = test system: T-47D; assay: MTT test, T-47D; details: Homo sapiens, T47D, 10^−5 M, 72 hours, control = 100%, mean ± SEM, read-out: average optical density (MTT), percentage relative to control
Experimental: (§1) The influence of the compounds of formulae (I) and (Ia) on non-clonogenic cells was evaluated with the aid of the MTT calorimetric test.
(§2) The principle of the MTT test is based on the mitochondrial reduction, by the metabolically active live cells, of the yellow-colored product MTT (3-(4,5-dimethylthiazol-2-yl)-2,5-diphenyltetrazolium bromide) to a blue-colored product, formazan. The amount of formazan thus obtained is directly proportional to the amount of live cells present in the culture well(s). This amount of formazan is measured by spectrophotometry.
(§3) The cell lines are maintained as a monolayer culture at 37° C. in stoppered culture dishes containing MEM 25 MM HEPES (Minimum Essential Medium) base medium. This medium is suited to the growth of a range of various mammalian diploid or primary cells. This medium is then supplemented with:
(§4) an amount of 5% of FCS (Foetal Calf Serum) decomplemented at 56° C. for 1 hour,
(§5) 0.6 mg/ml of L-glutamine,
(§6) 200 μg/ml of streptomycin,
(§7) The 12 human cancer cell lines which were used were obtained from the American Type Culture Collection (ATCC, Rockville, Md., USA). These 12 cell lines are:
T-47D (code ATCC: HTB-133) and MCF7 (code ATCC: HTB-22) which are two breast cancers,
(§8) Experimentally: 100 μl of a cell suspension containing 20 000 to 50 000 (depending on the cell type used) cells/ml of culture medium are inoculated in 96-well flat-bottomed multi-well plates and are incubated at 37° C., under an atmosphere comprising 5% CO2 and 70% humidity. After incubation for 24 hours, the culture medium is replaced with 100 μl of fresh medium containing either the various test compounds at concentrations ranging from 10^−5 to 10^−10 M or the solvent used to dissolve the test products (control condition). After incubation for 72 hours under the above conditions, the culture medium is replaced with 100 μl of a yellowish solution of MTT dissolved at a rate of 1 mg/ml in RPMI 1640. The microplates are reincubated for 3 hours at 37° C. and are then centrifuged for 10 minutes at 400×g. The yellowish solution of MTT is removed and the blue formazan crystals formed in the cell are dissolved in 100 μl of DMSO. The microplates are then shaken for 5 minutes. The intensity of the resulting blue coloration, and thus of the conversion of the yellow product MTT into blue formazan by the cells that are still alive at the end of the experiment, is quantified by spectrophotometry using a Dynatech Immunoassay System machine at wavelengths of 570 nm and 630 nm corresponding, respectively, to the maximum absorption wavelengths of formazan and to the background noise. Software incorporated in the spectrophotometer calculates the average optical density values and the standard deviation (SD) and standard error of mean (SEM) values.
(§9) By way of example, the results of the average optical density, expressed as a percentage relative to the average optical density measured under the control condition (set equal to 100%), obtained at a concentration of 10^−5 M on the 12 abovementioned tumor cell lines are given in Table II.

[2] = test system: HCT-15; assay: MTT test, HCT-15; details: Homo sapiens, 10^−5 M, 72 hours, control = 100%, mean ± SEM, read-out: average optical density (MTT), percentage relative to control
Experimental: as §1, §2, §3, §4, §5, §6, §7
HTC-15 (code ATCC: CCL-225) and LoVo (code ATCC: CCL-229) which are two colorectal cancers,
as §8, §9

[3] = test system: SW1088; assay: MTT test, SW1088; details: Homo sapiens, 10^−5 M, 72 hours, control = 100%, mean ± SEM, read-out: average optical density (MTT), percentage relative to control
Experimental: as §1, §2, §3, §4, §5, §6, §7
SW1088 (code ATCC: HTB-12) which is an astrocytoma,
as §8, §9

| Structure (SMILES) | viability at 10 µM [1] | viability at 10 µM [2] | viability at 10 µM [3] |
| --- | --- | --- | --- |
| COc1ccc(-c2cc3c(OC)cc(OC)cc3[nH]c2=O)cc1 [CRL8246, 5,7-Dimethoxy-3-(4-methoxyphenyl)-1,2-dihydro-2-quinolinone] | 96 ± 2.6% | 97.2 ± 5.1% | 108 ± 1.1% |
| CCN(CC)C(=O)Cn1c(=O)c(-c2ccc(OC)cc2)cc2c(OC)cc(OC)cc21 [CRL8315, N,N-Diethyl-2-[5,7-dimethoxy-3-(4-methoxy-phenyl)-2-oxo-1,2-dihydro-1-quinolinyl]acetamide] | 101 ± 2.5% | 87.9 ± 3.3% | 89.1 ± 0.6% |
| CCN(CC)C(=O)CCn1c(=O)c(-c2ccc(OC)cc2)cc2c(OC)cc(OC)cc21 [CRL8283, N,N-Diethyl-3-[5,7-dimethoxy-3-(4-methoxy-phenyl)-2-oxo-1,2-dihydro-1-quinolinyl]propanamide] | 81 ± 3.1% | 58.2 ± 4.3% | 84.7 ± 3.1% |
| COc1ccc(-c2cc3c(OC)cc(OC)cc3n(CCN(C)C)c2=O)cc1 [CRL8316, 1-[2-(Dimethylamino)ethyl]-5,7-dimethoxy-3-(4-methoxyphenyl)-1,2-dihydro-2-quinolinone] | 68.8 ± 2.4% | 79.8 ± 2.9% | 107 ± 2% |
| COc1ccc(-c2cc3c(OC)cc(OC)cc3n(CCc3nnn[nH]3)c2=O)cc1 [CRL8256, 1-[2-(1H-1,2,3,4-Tetrazol-5-yl)ethyl]-5,7-dimethoxy-3-(4-methoxyphenyl)-1,2-dihydro-2-quinolinone] | 77.5 ± 3.6% | 73.9 ± 3.6% | 72.1 ± 3.3% |
| COc1ccc(-c2cc3c(OC)cc(OC)cc3n(CCC#N)c2=O)cc1 [CRL8247, 3-[5,7-Dimethoxy-3-(4-methoxyphenyl)-2-oxo-1,2-dihydro-1-quinolinyl]propanenitrile] | 58.3 ± 1.4% | 87.4 ± 2.5% | 85.8 ± 3.6% |
